Patent US9896479B2, “Functionalized naphthalene fluorophores” (Kay M. Brummond, priority 2012, dated 2018)
Read-outs that look alike come from different tables or passages of the source.

How the values were obtained:
[1] = Absorption spectra (absorption maxima) of dyes in organic solvents; type: physicochemical
Source text: (§1) All commercially available compounds were purchased from Aldrich Chemical Co., GFS Chemicals, Strem Chemicals, Acros Organics, Alfa Aesar, and Advanced Chemtech and used as received, except for p-toluenesulfonyl hydrazide, which was recrystallized from methanol. Amines were purchased from Aldrich Chemical Co. as purified by redistillation and used as received. Tetrahydrofuran (THF), diethyl ether (Et2O), and dichloromethane (CH2Cl2) were purified by passing through alumina using the Sol-Tek ST-002 solvent purification system. Acetonitrile (MeCN) and toluene were freshly distilled from CaH2 prior to use. Benzene was freshly distilled from sodium/benzophenone prior to use Anhydrous N,N-dimethylformamide (DMF), 1,2-dichloroethane (DCE), and 1,4-dioxane were purchased and used as received from Aldrich Chemical Co. Purification of the compounds by flash column chromatography was performed using silica gel (32-63 μm particle size, 60 Å pore size) purchased from Silicycle, or by using a Biotage Horizon flash purification system with either Biotage SNAP KP-SIL silica cartridges, or Teledyne ISCO RediSep Rf normal phase disposable flash columns (40-60 micron). TLC analyses were performed on EMD Chemicals Silica Gel 60 F254 glass plates (250 μm thickness). ^1H NMR and ^13C NMR spectra were recorded on Bruker Avance 300 MHz, 500 MHz, or 600 MHz spectrometers. Spectra were referenced to residual chloroform (7.27 ppm, ^1H, 77.0 ppm, ^13C) or 1,2-dichlorobenzene (6.93 ppm, ^1H, 127.19 ppm, ^13C). Chemical shifts are reported in ppm, multiplicities are indicated by s (singlet), d (doublet), t (triplet), q (quartet), p (pentet), and m (multiplet). Coupling constants, J, are reported in hertz (Hz). All NMR spectra were obtained at room temperature unless otherwise specified. IR spectra were obtained using a Nicolet Avatar E.S.P. 360 FT-IR. EI mass spectroscopy was performed on a Waters Micromass GCT high resolution mass spectrometer. ES mass spectroscopy was performed on a Waters Q-TOF Ultima API, Micromass UK Limited high resolution mass spectrometer. GC mass spectrometry was performed on a Shimadzu GCMS-17A/QP5050A spectrometer. All microwave-mediated reactions were carried out using a Biotage Initiator™ Exp microwave synthesizer. The microwave parameters were set to variable power, constant temperature, with the fixed hold time set to on. The microwave reactions were carried out in 0.2-0.5 mL, 0.5-2 mL, 2-5 mL, or 10-20 mL Biotage microwave vials. […] Absorption and fluorescence spectra were recorded on Lambda 9 spectrophotometer (Perkin Elmer) and FluoroMax-3 spectrofluorometer (Jobin Yvon, Horiba), respectively. Fluorescence quantum yields were determined by taking Prodan in DMSO (quantum yield, QY=91%) as a reference. The quantum yield values were corrected for the solvent refractive index. For spectroscopic measurements, 10^−5 M solutions of dyes in 10 mm quartz-cuvettes were used (excitation wavelength was 334 nm; slits open to 2 nm).

[2] = Fluorescence quantum yield vs Prodan in DMSO as reference; type: physicochemical; conditions: for QY (fluorescence quantum yield vs Prodan in DMSO (91%)): excitation 334 nm, 10^-5 M
Source text: as §1

[3] = cited from earlier work
[4] = Prodan in DMSO taken as reference; cited from earlier work

λabs (maximum absorption) ([1]; 1,4-Dioxane): 346 nm
λabs (maximum absorption) ([1]; Acetonitrile): 350 nm
λabs (maximum absorption) ([1]; CH2Cl2): 355 nm
λabs (maximum absorption) ([1]; DMSO): 357 nm
λabs (maximum absorption) ([1]; EtOH): 362 nm
λabs (maximum absorption) ([1]; THF): 348 nm
λabs (maximum absorption) ([1]; Toluene): 346 nm
λabs (maximum absorption) ([1]; n-Hexane): 340 nm
QY (fluorescence quantum yield vs Prodan in DMSO (91%)) ([2]; 1,4-Dioxane): 75%
QY (fluorescence quantum yield vs Prodan in DMSO (91%)) ([2]; Acetonitrile): 80%
QY (fluorescence quantum yield vs Prodan in DMSO (91%)) ([2]; CH2Cl2): 98%
QY (fluorescence quantum yield vs Prodan in DMSO (91%)) ([2]; DMSO): 91%
QY (fluorescence quantum yield vs Prodan in DMSO (91%)) ([2]; EtOH): 71%
QY (fluorescence quantum yield vs Prodan in DMSO (91%)) ([2]; THF): 78%
QY (fluorescence quantum yield vs Prodan in DMSO (91%)) ([2]; Toluene): 56%
QY (fluorescence quantum yield) ([2]; n-Hexane): 2.0%
Compound: CCC(=O)c1ccc2cc(N(C)C)ccc2c1 [Prodan, reference compound]
Bathochromic shift ([3]; cyclohexane to water (background)): 124 nm
fluorescent emission ([3]; in cyclohexane (background)): 410 nm
fluorescent emission ([3]; in water (background)): 534 nm
quantum yield, QY (reference value) [4]: 91%
